Test results: patent US20170158636A1, “FUNCTIONALISED AND SUBSTITUTED CARBAZOLES AS ANTI-CANCER AGENTS” (Novogen Ltd., priority 2014, published 2017)

What was measured:
Experiment in all cases: Anti-proliferative activity, cell-titre luminescent viability assay
Format in all cases: cell-based
[1] = system: SK-Mel-28 melanoma cells; conditions: Homo sapiens, 72 hours exposure
In short: (§1)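 Seeded cell lines attached 24 h (37° C, 5% CO2), then received compound for 72 h before a 30 min luminescent viability read versus untreated control. Four-point series (0.03–30 μM) gave IC50 by linear regression of semi-log percent-of-control plots; six-point series (0.1–30 μM) gave vehicle-normalized EC50 from variable-slope sigmoidal fits.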

[2] = system: CaCo2 colorectal cancer cells; conditions: Homo sapiens, Caco-2, 72 hours exposure
In short: as §1

[3] = system: A549 lung (NSLC) cancer cells; conditions: Homo sapiens, 72 hours exposure
In short: as §1

[4] = system: PC3 prostate cancer cells; conditions: 72 hours exposure
In short: as §1

[5] = system: MDA-MB-231 breast cancer cells; conditions: Homo sapiens, 72 hours exposure
In short: as §1

[6] = system: DU145 prostate cancer cells; conditions: Homo sapiens, DU-145, 72 hours exposure
In short: as §1

[7] = system: SK-N-SH neuroblastoma cells; conditions: Homo sapiens, 72 hours exposure
In short: as §1

- IC50 [1]: 1200 nM
- IC50 [2]: 2800 nM
- IC50 [3]: 1900 nM
- IC50 [4]: 3200 nM
- IC50 [5]: 2400 nM
- IC50 [6]: 3000 nM
- IC50 [7]: 1600 nM
SMILES: CCN(CC)CCCn1c2ccccc2c2cc(C(=O)N3CCN(CCc4ccc(F)cc4)CC3)ccc21 [Compound 1007, (9-(3-(diethylamino)propyl)-9H-carbazol-3-yl)(4-(4-fluorophenethyl)piperazin-1-yl)methanone]
